Laboratory results as given in patent US20060223884A1, “Compounds and compositions for use in the prevention and treatment of obesity and related syndromes” (priority 2005, published 2006).
Read-outs that look alike come from different tables or passages of the source.

Columns and labels:
[1] = assay type: in vivo
Source text: The objective of this study was to evaluate the effect of chronic administration of 4-hydroxyisoleucine (4-OH, compound 14a) on food consumption and body weight gain of DIO-mice. Both parameters were monitored for 1 week prior to the commencement of treatment, then for the 77 days of treatment and for an additional 12 days post-treatment.
C57BL/6 mice were received at 7-8 weeks of age and fed a high fat diet (60% of calories from fat) for several weeks. A total of 32 animals were used in the study. The animals were distributed into 4 groups (3 treated, 1 control group, all on high fat diet). Each group was composed of 8 animals. The mice were randomized according to body weight and basal glycemia values following a 5±0.5 hour fasting period.
The test agent was dissolved in reverse osmosis water. 4-Hydroxyisoleucine was aliquoted and kept at 4° C. Control animals received reverse osmosis water twice daily (group 1). Mice from groups 2, 3 and 4 were treated twice daily with 4-hydroxyisoleucine (4-OH, compound 14a) at 100, 50, and 25 mg/kg, respectively. All groups were treated by oral gavage. Treatment commenced on Day 0 and ended on Day 77. Food consumption was measured daily and averaged on a weekly basis beginning one week before the start of treatment as shown in FIG. 15B. Similarly, food consumption was monitored during the treatment period and for 12 days after treatment was stopped as shown in FIGS. 15A and 15B.

[2] = Weight gain and epididymal fat of DIO-C57Bl/6 mice, 4-hydroxyisoleucine and Exendin-4 alone or in combination (Example 5); assay type: in vivo, C57BI/6 mice; conditions: s.c., 21 days
Protocol: Glycemic response was monitored by an Oral Glucose Tolerance Test (OGTT) performed on days 0, 7, 14, and 21 of treatment.
A total of 56 animals were used in the study. The animals were distributed into 7 groups (5 treated, 1 normal diet control, and 1 high fat diet control group). Each group was composed of 8 animals. […] For the three weeks of treatment, the test agents were dissolved in sterile saline for injection (USP). 4-Hydroxyisoleucine was kept at 4° C. (administration to groups 3, 4, and 7) while a frozen aliquot of Exendin-4 was thawed each dosing day for administration to groups 5, 6, and 7. Control animals received sterile saline, twice daily (groups 1 and 2). […] Animals from groups 5 and 6 received sterile saline as the AM treatment, while the PM treatment consisted of 0.05 and 0.01 mg/kg of Exendin-4, respectively. For Group 7, the AM treatment consisted of 50 mg/kg 4-OH only, while the PM treatment consisted of 0.01 mg/kg of Exendin-4+50 mg/kg of 4-OH. All groups were treated by subcutaneous injection.

[3] = Body weight of DIO mice, 4-hydroxyisoleucine and metformin alone and in combination (Example 6); assay type: in vivo, C57BU6 mice
Protocol: C57BU6 mice were received at 7-8 weeks of age and fed a high fat diet (60% of calories from fat) for 8 weeks. Fasted glycemia was checked and animals with readings between 200 and 220 mg/dL were included in the study. The animals were randomized based on their body weights and glycemia values into control and treatment groups (n=8). […] The control group received vehicle (water) alone. The animals were treated for 21 days. Body weight of the mice was measured on the first day of treatment and on days 3, 7, 10, 14, 17, and 21. All data are expressed as mean±SEM.

[4] = Body weight of DIO mice, 4-hydroxyisoleucine and Rimonabant alone and in combination (Example 7); assay type: in vivo, C57BU6 mice; conditions: oral
Protocol: C57BU6 mice were received at 7-8 weeks of age and fed a high fat diet (60% of calories from fat) for 8 weeks. Seven days prior to treatment, animals were randomized based on their body weight and fasted glycemia values into control and treated groups (n=8). The animals were treated by oral gavage twice daily with 4-OH (50 mg/kg of body weight; group 2), once daily in the afternoon with Rimonabant (0.1 mg/kg; group 3), and a combination of the two treatments (4-OH 50 mg/kg twice daily +Rimonabant 0.1 mg/kg once daily; group 4). The control group (group 1) received vehicle alone twice daily. After 3 weeks of treatment (day 22), the doses were increased as follows: 4-OH 100 mg/kg twice daily (group 2), Rimonabant 1 mg/kg once daily (group 3), and the combination (4-OH 100 mg/kg twice daily+Rimonabant 1 mg/kg once daily; group 4). The animals were treated for 1 week with these higher doses. Body weight of the mice was recorded every day for all groups from Day 6 to Day 28.

[5] = Body weight gain in C57BU6 mice shifted to a high fat diet, analogs and isomers, 3 days (Example 9); assay type: in vivo; conditions: C57BU6 mice on high fat diet, 100 mg/kg twice daily oral gavage
Protocol: C57BU6 mice were received at 6-7 weeks of age and fed a standard commercial chow for 1 week (acclimation period). The animals were randomized based on their body weight values, into control and treatment groups (n=6). Then, animals were shifted to a high fat diet (60% of calories from fat) and treated twice daily by oral gavage with 4-hydroxyisoleucine (4-OH, compound 14a) or different analogs and isomers of 4-OH at the dose of 100 mg per kg of body weight for 3 days. The control group (Control HFD) received vehicle (water) alone and a group was kept under standard chow (Control Lean). Body weight of the mice was recorded daily. Two different experiments were run and the effect on body weight gain of selected analogs and isomers according to the invention is presented in FIG. 22A (Experiment 1) and FIG. 22B (Experiment 2).

[6] = Reversal of weight gain in obese wistar rats on HFHS diet (Example 11); assay type: in vivo; conditions: 100 mg/kg twice daily oral
Source text: The aim of this study was to evaluate the effect of chronic administration of 4-hydroxyisoleucine (4-OH, Compound 14a) on food consumption, tissue weight, and body weight gain of wistar obese rats.
A total of 30 animals were used in the study. The animals were acclimated for 1 week and fed standard chow. The animals were randomized into 3 groups of 10 animals each. Two groups were fed a high fat, high sucrose diet (HFHS), and 1 untreated control group was fed standard chow over a 28 day period. Animals were housed separately and food consumption was monitored daily.
In the following period of 28 days, the feeding regimen remained the same for the 3 groups; however, 1 group fed HFHS was treated with twice daily oral administration of 4-OH at 100 mg/kg per dose. For the 28 days of treatment, 4-OH was dissolved in reverse osmosis water, aliquoted, and kept at 4° C. Untreated animals received water twice daily.

[7] = obese wistar rats (28 days HFHS before treatment)

In the case of `C[C@@H]([C@H](C)O)[C@H](N)C(=O)O` [compound 14a, (2S,3R,4S)-4-Hydroxyisoleucine], the “effect on weight gain” value ([1]; DIO mice, 100 mg/kg twice daily oral, Day 28 to Day 84) is reported as “sustained and highly significant”, the tolerability of treatments ([1]; DIO mice, 25, 50 and 100 mg/kg twice daily, oral gavage, 77 days) is reported as “well-tolerated” and the weight gain ([1]; DIO mice, 50 and 100 mg/kg twice daily oral, first three weeks of treatment) is reported as “moderation of weight gain”. For the same compound, the food consumption ([1]; DIO mice, during the first week of treatment, paralleling the reduction in body weight gain) was “slight decrease in food consumption”, the “body weight gain and food consumption after cessation of treatment” value ([1]; DIO mice, first week following cessation of treatment with 100 mg/kg) was “increase” and the body weight gain ([2]; 4-OH 50 mg/kg twice daily, Exendin-4 0.01 mg/kg (PM), alone or in combination) was “decrease in body weight gain”. For the same compound, the “weight of epididymal fat” value ([2]; 4-OH 100 mg/kg, Exendin-4 0.01 mg/kg, combination 4-OH 50 mg/kg + Exendin-4 0.01 mg/kg) was “reduction of the weight of epididymal fat”, the “body weight as compared to vehicle-treated mice” value ([3]; DIO mice, 100 mg/kg twice daily oral, 21 days, only 4-OH significant (p<0.01 4-OH, p=0.27 metformin)) was “reduction of their body weight” and the “body weight compared to control DIO mice, given alone” value ([3]; DIO mice, 4-OH 50 mg/kg or metformin 25 mg/kg twice daily oral, 21 days) was “no significant effect on body weight”. For the same compound, the “efficacy in reducing body weight relative to metformin” value ([3]; DIO mouse model, conclusion of the study) was “as effective as mefformin”, the “body weight gain after 21 days (low dosage treatment)” value ([4]; 4-OH 50 mg/kg twice daily, Rimonabant 0.1 mg/kg once daily, alone or in combination) was “slight reduction of body weight gain” and the “body weight after dose increase (day 22 to 28)” value ([4]; 4-OH 100 mg/kg twice daily, Rimonabant 1 mg/kg once daily, alone or in combination (combination compared to each compound separately)) was “immediately reduced the body weight”. The “body weight as compared to pre-treatment values (FIG. 22B, one experiment)” value [5] was “reduced body weight of the mice as compared to pre-treatment values”, the “body weight gain induced by the high fat diet” value [5] was “reduced body weight gain induced by the high fat diet” and the “epididymal and peri-renal adipose tissue” value [6, 7] was “reduction of epididymal and pen-renal adipose tissue”. For the same compound, the “muscle, brown fat, and organ weight” value [6, 7] was “not affected”, the tolerability of treatment [6, 7] was “well tolerated” and the weight gain [6, 7] was “Moderation of weight gain”. The food consumption ([6]; obese wistar rats, 28 days, could not account for the differences in adiposity) was “reduction in food consumption”.
